The results in this text go back to patent US12697325B2 (TENNOR THERAPEUTICS (SUZHOU) LIMITED, priority 2021, dated 2026).

The assay deals with Acinetobacter baumannii clinical strains. Kind of assay: Information of drug resistance of 10 clinical strains. In kind it is cell-based. On the set-up: key: S: Drug Susceptible; I: Drug Intermediate; R: Drug Resistant.

As for Gentamicin, the Drug resistance result is, setting by setting: (strain TNP041702) “R”; (strain TNP041703) “R”; (strain TNP041704) “R”; (strain TNP041705) “R”; (strain TNP041706) “S”; (strain TNP041707) “R”. In addition, the Drug resistance entry by setting is: (strain TNP041708) “R”; (strain TNP041709) “R”; (strain TNP041710) “R”; (strain TNP041711) “R”.

Turning to `CO/N=C(\C(=O)N[C@@H]1C(=O)N2C(C(=O)[O-])=C(C[N+]3(C)CCCC3)CS[C@H]12)c1csc(N)n1` [Cefepime], the Drug resistance result is, setting by setting: (strain TNP041702) “R”; (strain TNP041703) “R”; (strain TNP041704) “R”; (strain TNP041705) “R”; (strain TNP041706) “R”; (strain TNP041707) “R”. In addition, the Drug resistance result runs as follows: (strain TNP041708) “R”; (strain TNP041709) “R”; (strain TNP041710) “R”; (strain TNP041711) “R”.

Consider `NCC[C@H](O)C(=O)N[C@@H]1C[C@H](N)[C@@H](O[C@H]2O[C@H](CN)[C@@H](O)[C@H](O)[C@H]2O)[C@H](O)[C@H]1O[C@H]1O[C@H](CO)[C@@H](O)[C@H](N)[C@H]1O` [Amikacin], for which the Drug resistance result is listed as “R” (strain TNP041702); “R” (strain TNP041703); “R” (strain TNP041704); “R” (strain TNP041705); “S” (strain TNP041706); “R” (strain TNP041707). Besides, the Drug resistance result reads like this: (strain TNP041708) “S”; (strain TNP041709) “R”; (strain TNP041710) “R”; (strain TNP041711) “R”.

With `CO/N=C(\C(=O)N[C@@H]1C(=O)N2C(C(=O)O)=C(COC(N)=O)CS[C@H]12)c1ccco1` [Cefuroxime], the Drug resistance result (strain TNP041702) is reported as “R”; the Drug resistance entry (strain TNP041703) was “R”; the Drug resistance entry (strain TNP041704) was “R”; the Drug resistance result (strain TNP041705) was “R”; the Drug resistance result (strain TNP041706) is given as “R”; the Drug resistance entry (strain TNP041707) is on record as “R”. In addition, the Drug resistance entry was “R” (strain TNP041708), “R” (strain TNP041709), “R” (strain TNP041710) and “R” (strain TNP041711).

`Cc1nnc(SCC2=C(C(=O)O)N3C(=O)[C@@H](NC(=O)Cn4cnnn4)[C@H]3SC2)s1` [Cefazolin]: the Drug resistance result (strain TNP041702) is “R”; the Drug resistance result (strain TNP041703) is “R”; the Drug resistance entry (strain TNP041704) was “R”; the Drug resistance entry (strain TNP041705) was “R”; the Drug resistance entry (strain TNP041706) is on record as “R”; the Drug resistance result (strain TNP041707) is “R”. The Drug resistance entry reads like this: (strain TNP041708) “R”; (strain TNP041709) “R”; (strain TNP041710) “R”; (strain TNP041711) “R”.

Regarding `CO/N=C(\C(=O)N[C@@H]1C(=O)N2C(C(=O)O)=C(COC(C)=O)CS[C@H]12)c1csc(N)n1` [Cefotaxime], the Drug resistance entry reads like this: (strain TNP041702) “R”; (strain TNP041703) “R”; (strain TNP041704) “R”; (strain TNP041705) “R”; (strain TNP041706) “R”; (strain TNP041707) “R”. Moreover, the Drug resistance result was “R” (strain TNP041708), “R” (strain TNP041709), “R” (strain TNP041710) and “R” (strain TNP041711).

Take `CCN1CCN(C(=O)N[C@@H](C(=O)N[C@@H]2C(=O)N3[C@@H]2SC(C)(C)[C@@H]3C(=O)O)c2ccccc2)C(=O)C1=O` [Piperacillin]: the Drug resistance result by setting is: (strain TNP041702) “R”; (strain TNP041703) “R”; (strain TNP041704) “R”; (strain TNP041705) “R”; (strain TNP041706) “R”; (strain TNP041707) “R”. Also, the Drug resistance entry reads like this: (strain TNP041708) “R”; (strain TNP041709) “R”; (strain TNP041710) “R”; (strain TNP041711) “R”.

As to `C[C@@H](O)[C@H]1C(=O)N2C(C(=O)O)=C(S[C@@H]3CN[C@H](C(=O)N(C)C)C3)[C@H](C)[C@H]12` [Meropenem], the Drug resistance result is, setting by setting: (strain TNP041702) “R”; (strain TNP041703) “R”; (strain TNP041704) “R”; (strain TNP041705) “R”; (strain TNP041706) “R”; (strain TNP041707) “R”. Moreover, the Drug resistance entry (strain TNP041708) is reported as “R”, the Drug resistance result (strain TNP041709) is on record as “R”, the Drug resistance result (strain TNP041710) was “R” and the Drug resistance result (strain TNP041711) was “R”.

On to `CC(C)(O/N=C(\C(=O)N[C@@H]1C(=O)N2C(C(=O)[O-])=C(C[n+]3ccccc3)CS[C@H]12)c1csc(N)n1)C(=O)O` [Ceftazidime], for which the Drug resistance result is, setting by setting: (strain TNP041702) “R”; (strain TNP041703) “R”; (strain TNP041704) “R”; (strain TNP041705) “R”; (strain TNP041706) “R”; (strain TNP041707) “R”. Also, the Drug resistance result (strain TNP041708) is on record as “R”, the Drug resistance entry (strain TNP041709) is on record as “R”, the Drug resistance entry (strain TNP041710) is “R” and the Drug resistance result (strain TNP041711) is on record as “R”.

On to `C[C@@H](O)[C@H]1C(=O)N2C(C(=O)O)=C(SCCN=CN)C[C@H]12` [Imipenem], for which the Drug resistance entry (strain TNP041702) is on record as “R”; the Drug resistance result (strain TNP041703) is listed as “R”; the Drug resistance result (strain TNP041704) is on record as “R”; the Drug resistance entry (strain TNP041705) is listed as “R”; the Drug resistance result (strain TNP041706) is recorded as “R”; the Drug resistance result (strain TNP041707) is recorded as “R”. Further, the Drug resistance entry by setting is: (strain TNP041708) “R”; (strain TNP041709) “R”; (strain TNP041710) “R”; (strain TNP041711) “R”.
